For 1 compound, Activity results are on record in ChEMBL document CHEMBL4680246, “Design, synthesis and biological evaluation of novel O-carbamoyl ferulamide derivatives as multi-target-directed ligands for the treatment of Alzheimer's disease” (Eur J Med Chem, 2020).

The structures appear in SMILES notation.

The target in data set [1] is T1, Cholinesterase (Homo sapiens, UniProt P06276). Briefly: Pseudo-irreversible inhibition of human serum BuChE assessed as residual activity at 0.1 times IC50 using acetylcholine iodide as substrate measured 240 mins post dilution by Ellman's method relative to control.
For data set [2], the target named is T1, Cholinesterase. Description: Inhibition of human serum BuChE assessed as residual activity at IC50 using acetylcholine iodide as substrate measured by Ellman's method relative to control.
Data set [3] concerns the target T1, Cholinesterase. Description: Inhibition of human serum BuChE assessed as residual activity at 0.1 times IC50 using acetylcholine iodide as substrate measured after dilution by Ellman's method relative to control.
Data set [4] in a line: Effect on spontaneous alteration behavior in mouse assessed as change in total arm entry at 6 mg/kg by Y-maze test. It counts as ADME, organism-based. The following applies: in vivo.
For data set [5], the system named is Mus musculus. Briefly: Improvement in cognitive impairment in scopolamine-induced mouse model of amnesia assessed as change in spontaneous alteration at 6 mg/kg by Y-maze test (reference value: 40.8%). Type of data set: functional.
Data set [6] relates to Mus musculus. Description: Improvement in brain cholinergic activity in scopolamine-induced mouse model of amnesia assessed as change in ChAT vitality at 6 mg/kg (reference value: 28.8 U/g). It counts as functional.

T1 sequence (P06276 whole entry): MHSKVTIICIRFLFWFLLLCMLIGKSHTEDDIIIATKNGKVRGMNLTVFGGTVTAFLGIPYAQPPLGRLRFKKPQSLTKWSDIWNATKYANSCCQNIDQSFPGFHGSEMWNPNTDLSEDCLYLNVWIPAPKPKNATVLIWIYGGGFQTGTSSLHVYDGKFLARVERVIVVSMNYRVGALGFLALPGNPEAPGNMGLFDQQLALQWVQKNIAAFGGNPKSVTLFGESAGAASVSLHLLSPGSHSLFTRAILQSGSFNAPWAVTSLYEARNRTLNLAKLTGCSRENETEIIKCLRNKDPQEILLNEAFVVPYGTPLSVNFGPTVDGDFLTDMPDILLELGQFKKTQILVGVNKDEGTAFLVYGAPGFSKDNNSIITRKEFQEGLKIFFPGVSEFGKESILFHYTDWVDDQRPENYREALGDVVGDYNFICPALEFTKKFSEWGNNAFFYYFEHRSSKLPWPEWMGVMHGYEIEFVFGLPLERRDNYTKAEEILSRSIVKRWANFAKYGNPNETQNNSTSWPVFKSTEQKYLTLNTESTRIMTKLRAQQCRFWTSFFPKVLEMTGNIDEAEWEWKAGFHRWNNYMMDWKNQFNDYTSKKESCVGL

With `CCN(C)C(=O)Oc1cccc([C@H](C)N(C)C)c1` [RIVASTIGMINE], the Activity in data set [1] is 73.3%; in data set [2], 48.3%; in data set [3], 53.2%; in data set [4] it was “Non-Toxic”; in data set [5], 60.2%; in data set [6], 55.3 U/g.
